Experimental data: article PMC6895199, “A new antiviral scaffold for human norovirus identified with computer-aided approaches on the viral polymerase” (Scientific Reports, 2019)
Read-outs that look alike come from different tables or passages of the source.

What was measured:
HuNoV GI.1 replicon = assay: HuNoV GI replicon assay (HGT-NV cells, qRT-PCR); assay type: cell-based, human norovirus GI.1
Description: Given that in this system the gene encoding for the major capsid protein is replaced by a neomycin resistance gene, no new virus particles will be produced but the non-structural proteins are expressed and the replication of the genomic RNA can be studied.
(§1) Cells and virus: MNV (virus strain MNV-1.CW1) was propagated in RAW 264.7 cells grown in DMEM (Life Technologies, Gent, Belgium) supplemented with 10% or 2% FBS, 2 mM L-glutamine, 20 mM HEPES, 0.075 g/L sodium bicarbonate, 1 mM sodium pyruvate, 100 U penicillin/mL and 100 µg/mL streptomycin at 37 °C in a humidified atmosphere of 5% CO2. The human norovirus GI.1 replicon harboring gastric tumor-1 cell line (HGT-NV) (kindly provided by Dr. Ian Goodfellow, University of Cambridge) was maintained in DMEM supplemented with 10% FBS, 2mM L-glutamine, 0.075 g/L sodium bicarbonate and 1.0 mg/ml of Geneticin (G418; Life Technologies), at 37 °C in a humidified atmosphere of 5% CO2[34].
Antiviral assay with the HGT-NV replicon: The inhibitory effect of Compounds on human norovirus replication was assessed by quantification of the levels of HuNoV GI replicon RNA and of the reference (housekeeping) gene β-actin mRNA [by quantitative reverse transcription polymerase chain reaction (qRT-PCR)]. To this end, HGT cells (2000 cells/well) were seeded in 96-well plates, in complete DMEM without the selection marker G418. Following an incubation period of 24 h, a serial dilution of rupintrivir was added to the cultures. After 72 h of incubation, cell monolayers were washed with phosphate-buffered saline (PBS) and collected for quantification of RNA load by qRT-PCR. Intracellular RNA was extracted from cells using the cell-to-cDNA lysis buffer (Ambion, Life Technologies). For detection of HuNoV GI replicon RNA, forward (5′-CCG GCT ACC TGC CCA TTC-3′), reverse (5′-CCAGATCATCCTGATCGACAAG-3′) primers and probe (5′-FAM-ACATCGCATCGAGCGAGCACGTAC-TAMRA-3′) for the neomycin gene were used. For detection of β-actin mRNA, forward (5′-GGCATCCACGAAACTACCTT-3′), reverse (5′-AGCACTGTGTTGGCGTACAG-3′) primers and probe (5′-HEX-ATCATGAAGTGTGACGTGGACATCCG-BHQ1–3′) were used. One-step qRT-PCR was performed in a 20 µL reaction mixture containing 10 µl 2X iTaq Universal SYBR® Green one step reaction mix (Bio-rad, California, USA), 5.17 µl RNAse free water, 0.5 µl of iScript reverse transcriptase (Bio-rad, California, USA), 4 µl of the template RNA and either 300 nM of HuNoV GI replicon primers and probe, 300 nM of β-actin primers and 200 nM of probe. Cycling conditions were: reverse transcription at 50 °C for 10 min, initial denaturation at 95 °C for 3 min, followed by 40 cycles of denaturation at 95 °C for 15 s, annealing and extension at 60 °C for 30 seconds (Roche Lightcycler®96, Roche Diagnostics, Belgium). To determine the relative expression levels of HuNoV GI replicon RNA, β-actin was used as a normalizer and ratios were calculated using the Pfaffl method. The Expression Ratio (HuNoV GI Replicon/β-actin) was calculated as: Expression Ratio = (E HuNoV)^ΔCT, HuNoV (CC – TC)/(Eβ-actin)^ΔCT, β-actin (CC – TC), where E HuNoV and Eβ-actin represent the amplification efficiency (E = 10^–1/slope) for the HuNoV GI replicon and β-actin qRT-PCR reactions, respectively. ΔCT, HuNoV (CC – TC) is the Ct of untreated control cells (CC) minus the Ct of cells treated with a compound concentration (TC) obtained with HuNoV GI replicon primers and probe. ΔCT, β-actin (CC – TC) is the Ct of untreated control cells (CC) minus the Ct of cells treated with a compound concentration (TC) obtained with β-actin primers and probe. Efficiency values (E HuNoV and Eβ-actin) were determined for each qRT-PCR reaction.

HuNoV (GII.4) RdRp [1] = assay: Counter-screen gel-shift assay of primed elongation activity (PE44-NoV template); assay type: biochemical, human norovirus; conditions: fixed concentration of 100 μM
Description: To further confirm RdRp inhibition and exclude any potential false positives from the first fluorescence RdRp assay, the eight molecules were then assessed using a gel-shift enzyme activity assay at a fixed concentration of 100 μM, following a procedure previously adopted by our research group.
Figure 5 A counter-screen gel-shift assay was used to confirm HuNoV (GII.4) RdRp inhibitory activity of compounds 2, 3, 34 and 35 (A), 4, 5, 6 (B) and 7 (C). The eight compounds were examined for inhibition of primed elongation activity. PE44-NoV RNA templates (32 nucleotides) were extended (44 nucleotides) by the RdRp in the absence of any test compounds (0.5% DMSO [vol/vol] negative control) or with test compounds at a fixed concentration of 100 μM. […] Full-length gels are presented in Supplementary Fig. S3.
(§2) Fluorescent RdRp activity assays were carried out as previously described[12],[29]. Briefly, RdRp activity was quantified by monitoring the formation of double-stranded RNA (dsRNA) from a single stranded homopolymeric template, poly(C) (Sigma Aldrich), using the fluorescent dye PicoGreen (Life Technologies, Carlsbad, CA, USA). RdRp assays were performed in 384-well plates, and each reaction mixture contained 400 ng enzyme, 45 μM GTP, 10 ng/μL poly(C) RNA, 2.5 mM MnCl2, 5 mM dithiothreitol, (DTT), 0.01% bovine serum albumin (BSA), and 0.005% Tween 20 in 20 mM Tris-HCl, pH 7.5, with a final reaction volume of 25 μL. The PPNDS and compound 1 were used as a positive controls. RdRps were incubated for 10 mins at 30 °C in the presence of the test compounds or the compound vehicle DMSO (0.5% vol/vol) before addition into the reaction mixture, which was then allowed to run 15 min at 30 °C then terminated with 10 mM EDTA, followed by PicoGreen staining and dsRNA quantitation. GraphPad Prism V6.05 (La Jolla, CA, USA) was used to plot the IC50 values. A secondary gel-based polymerase activity assay was used as a counter-screen as described below, to exclude the possibility of RdRp activity enhancement. Primed elongation activity was examined in a gel-based assay as previously described[12],[29] using the RNA template (PE44-NoV). Gels were imaged using BioRad (Hercules, CA, U.SA) Geldoc Universal Hood II, running BioRad Image Lab software, V4.1, build 16.

HuNoV (GII.4) RdRp [2] = biological target: HuNoV (GII.4) RdRp (Norovirus Hu/GII.4/Sydney/NSW0514/2012/AU, UniProt K4L8Z7); assay: Quantitative fluorescent RdRp activity assay (PicoGreen, poly(C) template); assay type: biochemical, human norovirus Sydney 2012; conditions: HuNoV (GII.4) RdRp activity; six concentrations 0.1–100 µM; mean ± SD
Description: The newly synthesised compounds, including the carboxylate ester derivatives 34–35 and 7 from the Core Hopping approach, were evaluated for their enzymatic inhibition of human norovirus Sydney 2012 (HuNoV (GII.4)) RdRp activity in vitro, using a quantitative fluorescent assay. Compounds were tested at six different concentrations (concentration range examined: 0.1–100 µM) and compared to the relative activity of mock treated samples containing the vehicle only (0.5% DMSO [vol/vol]). PPNDS [Pyridoxal-5′-phosphate-6-(2′-naphthylazo-6′-nitro-4′,8′-disulfonate) tetrasodium salt], a previously reported potent inhibitor of NoV RdRp activity, and 1 were used as positive controls. Dose-dependent inhibitory response curves were used to establish IC50 values for the eight test compounds, as reported in Table 1 (see also Supplementary Fig. S1).
The newly prepared compounds 48–60 were initially evaluated against norovirus Sydney 2012 RdRp activity in vitro using a quantitative fluorescent assay. Compounds were tested at a fixed concentration of 20 µM and compared to the relative activity of mock treated samples. PPNDS and 1 were used as positive controls. […] These two rings are structural features present in 1 and in one of its derivatives we have previously reported. […] From these observations, the thiophene ring appears not to influence inhibitory activity. Derivatives in which the central core of 48 has been used to link the two terminal hydrophobic rings of 1 or of its derivatives we have previously reported[25] (55, 57, 58) appear to retain the RdRp inhibitory activity found for 48 (~20% at 20 µM). A similar effect is obtained when a sulfonyl group, as in our hit 1, is used to link ring 2, regardless if it is a thiazole (59) or an unsubstituted phenyl ring (60), to the rest of the molecule. […] Overall, even if showing a reduced biochemical activity in comparison with 1, some of the new derivatives can be considered as modest HuNoV RdRp inhibitors at 20 µM.
as §2

[3] = Cytotoxicity by the MTS method on uninfected cells; assay type: cell-based; conditions: mouse, uninfected RAW 264.7 cells
Description: Cytotoxicity: The cytotoxicity of the Compounds was evaluated by the MTS method, by exposing uninfected cells to the same concentrations of compounds for 3 days. The %cell viability was calculated as (ODtreated/ODCC) × 100, where ODCC is the OD of uninfected untreated cells and ODtreated are uninfected cells treated with compound. The CC50 was defined as the compound concentration that reduces the number of viable cells by 50%[34].

MNV = MNV CPE reduction assay (MTS) in RAW 264.7 cells; assay type: cell-based, mouse norovirus (MNV-1.CW1); conditions: Norovirus, RAW264.7, in Mus musculus
Description: The newly prepared compounds 2–7 and 34–35 were evaluated for their antiviral effect against the genogroup V mouse norovirus (MNV) using the mouse macrophage cell line RAW264.7. This assay evaluates the ability of the compounds to protect infected cells from the virus-induced cytopathic effect, thus being suitable to identify inhibition of virus replication at every step of the virus life cycle, and representing a robust cellular assay available for the rapid evaluation of potential norovirus inhibitors. Compounds identified using MNV have shown effects against HuNoV in vitro and in vivo, as in the case of nucleoside RdRp inhibitor 2′-C-methylcytidine (2CMC)[34]–[36]. Unfortunately, despite not presenting the aqueous solubility issues we had previously encountered for 1[29], no significant antiviral effect could be observed in this assay for the new compounds up to the maximum concentration tested. The new structural modifications, despite retaining inhibition of the RdRp in an isolated enzyme activity assay and showing no cytotoxic effects at the test concentrations in the MNV antiviral assay (Supplementary Table S1), are correlated with a lack of antiviral activity. As these new structures present the same limitation of most non-nucleoside HuNoV polymerase inhibitors reported so far[22], we were prompted to apply a different computer-aided strategy to further modify the scaffold of 1, with the aim to achieve an antiviral effect in cellular systems. […]
Since the main scope of this work was to find new norovirus inhibitors which show antiviral effects against both the HuNoV RdRp and in norovirus-infected cells, priority was given to the evaluation of most of the new molecules for their antiviral activity against MNV in infected RAW cells. The nucleoside 2′-C-methylcytidine was used as positive control. The test compounds were evaluated at eight different concentrations (range 0.6–100 µM) and their ability to reduce the virus-induced cytopathic effect was assessed.
as §1
Antiviral assay with MNV: The antiviral activity of the Compounds was determined using an MTS [3-(4,5-dimethylthiazol-2-yl)-5-(3-carboxymethoxyphenyl)-2-(4-sulfophenyl)-2H-tetrazolium]-based cytopathic effect (CPE) reduction assay. […] Then, a MTS-phenazinemethosulfate (MTS/PMS) stock solution [(2 mg/mL MTS (Promega, Leiden, The Netherlands) and 46 µg/mL PMS (Sigma–Aldrich, Bornem, Belgium) in PBS at pH 6–6.5)] was diluted 1/20 in MEM (Life Technologies, Gent, Belgium) and 75 µL were added to each well. After 2 h, the optical density (OD) was read at 498 nm. The %CPE reduction was calculated as [(ODtreated)MNV − ODVC]/[ODCC − ODVC] × 100, where ODCC represents the OD of the uninfected untreated cells, whereas ODVC and (ODtreated)MNV represent the OD of infected untreated cells and virus-infected cells treated with a compound concentration, respectively. The 50% effective concentration (EC50) was defined as the compound concentration that protected 50% of the cells from virus-induced CPE[34].

[4] = Norwalk virus, HGT-1, 72 h, read-out: EC50 values (column head printed 'M'), HuNoV GI replicon in HGT-1 cells, replicon RNA by qRT-PCR
[5] = Supplementary Table S1, at least two independent experiments

`CCOC(=O)/C=C/[C@H](C[C@@H]1CCNC1=O)NC(=O)[C@@H](CC(=O)[C@@H](NC(=O)c1cc(C)on1)C(C)C)Cc1ccc(F)cc1` [Rupintrivir, reference compound] showed an EC50 (HuNoV GI.1 replicon; [4]) of 1.5 ± 0.4 µM.
In the case of `Cc1nc(N=Nc2cc(S(=O)(=O)[O-])c3cc([N+](=O)[O-])cc(S(=O)(=O)[O-])c3c2)c(COP(=O)([O-])[O-])c(C=O)c1O.[Na+].[Na+].[Na+].[Na+]` [PPNDS, Pyridoxal-5′-phosphate-6-(2′-naphthylazo-6′-nitro-4′,8′-disulfonate) tetrasodium salt, reference compound], the “inhibition of primed elongation activity (gel-shift)” value (HuNoV (GII.4) RdRp [1]) is reported as “complete inhibition” and the IC50 (HuNoV (GII.4) RdRp [2]) is reported as 1.5 ± 0.25 µM.
In the case of `O=C(NC(=S)Nc1ccc(N2CCN(S(=O)(=O)c3cccs3)CC2)cc1)c1ccccc1` [Compound 59, N-((4-(4-(Thiophen-2-ylsulfonyl)piperazin-1-yl)phenyl)carbamothioyl)benzamide], the CC50 at 3 days ([3]; Table 2, at least three independent experiments) is reported as greater than 100 µM, the “EC50 values (column head printed 'M')” value (HuNoV GI.1 replicon; HuNoV GI replicon in HGT-1 cells, 72 h, replicon RNA by qRT-PCR) is reported as “low micromolar range” and the EC50 (HuNoV GI.1 replicon; [4]) is reported as 10 µM. It also gave an EC50 (HuNoV GI.1 replicon; read-out: EC50 values (column head printed 'M'), HuNoV GI replicon in HGT-1 cells, 72 h, replicon RNA by qRT-PCR) of 10.9 ± 11.1 µM and an EC50 (MNV; Table 2, RAW 264.7, range 0.6–100 µM, at least three independent experiments) of 43.8 ± 16.9 µM.
For `O=C1NN(c2ccccc2)C(=O)/C1=C/c1ccc(-c2ccc(S(=O)(=O)Nc3nc4ccccc4[nH]3)cc2)o1` [Compound 6, (E)-N-(1H-benzo[d]imidazol-2-yl)-4-(5-((3,5-dioxo-1-phenylpyrazolidin-4-ylidene)methyl)furan-2-yl)benzenesulfonamide], the CC50 at 3 days [3, 5] was greater than 100 µM, the IC50 (HuNoV (GII.4) RdRp [2]) was 26.7 ± 2 µM and the EC50 (MNV; [5]) was 89 ± 2 µM.
